Data as given in patent US20040198716A1, “Cysteine protease inhimbitors” (priority 2001, published 2004).

Experiments:
α-chymotrypsin = α-chymotrypsin (Bos taurus, UniProt P00766, DEL14-15/DEL147-148); assay: Cross-reactivity protease inhibition assay (QuantiCleave), chymotrypsin; format: biochemical; conditions: ratio Abs450nm with inhibitor / without inhibitor; 100 μM compound
Description: (§1) To evaluate whether inhibition was specific to caspase-3 or applicable to other cysteine proteases or other proteases, inhibitor molecules were assayed for their capacity to inhibit additional non-caspase proteases. Three proteases, TPCK-trypsin, α-chymotrypsin and papain, were used to test for protease inhibition cross-reactivity. Protease inhibition assays were performed in 96-well flat-bottomed micro-titer plates with the QuantiCleave™ protease assay kit (Pierce, Rockford, Ill.) according to the manufacturer's instructions. Briefly, the assay conditions contained 100 μM compound, 2 mg/mL of succinylated-casein and 0.15 mg/mL of the protease. The assay incubated in a final volume of 150 μLs 0.05 M sodium borate pH 8.5 buffer (NaB-buffer) for 20 minutes at 25° C. After the protease reaction, 50 μLs of a trinitrobenzenesulfonic acid (TNBSA) solution (1:15, TNBSA:NaB-buffer) was added to each reaction and further incubated for 20 minutes at 25° C. Absorbance values at 450 nm were read in an Emax (Molecular Devices, Sunnyvale, Calif.) micro plate reader. Appropriate controls were performed, including known inhibitors (soybean trypsin inhibitor, aminoethyl-benzenesulfonic acid and leupeptin) for the proteases.
(§2) Relative activities in the presence of inhibitor were calculated by taking the ratio of absorbance for a reaction containing inhibitor to the absorbance for a reaction without inhibitor. Significant inhibition was determined by testing the null hypothesis of equivalence between the mean absorbance of reactions containing inhibitor and the mean absorbance of reactions without inhibitor (2 tailed t-test, 2 df).
(§3) The results are given in Table V in terms of cross-reactivities, relative activity and significant difference of 100 μM protease inhibitors on the proteases trypsin, chymotrypsin and papain.

papain = molecular target: T1, papain (Carica papaya, UniProt P00784); assay: Cross-reactivity protease inhibition assay (QuantiCleave), papain; format: biochemical; conditions: ratio Abs450nm with inhibitor / without inhibitor; 100 μM compound
T1 sequence (P00784 134-345): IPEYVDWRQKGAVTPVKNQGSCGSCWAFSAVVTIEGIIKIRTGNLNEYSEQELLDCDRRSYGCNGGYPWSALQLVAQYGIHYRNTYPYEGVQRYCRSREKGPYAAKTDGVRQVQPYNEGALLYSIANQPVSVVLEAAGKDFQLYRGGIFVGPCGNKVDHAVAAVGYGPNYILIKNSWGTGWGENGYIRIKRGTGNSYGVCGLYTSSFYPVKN
Description: as §1, §2, §3

cysteine protease = assay: Cysteine protease inhibitory activity, no method given
[1] = molecular target: T2, human recombinant caspase-3 (Homo sapiens, UniProt P42574); assay: In vitro high throughput caspase-3 assay; format: biochemical; conditions: for Percent Activity: percentage of the positive control, 20-250 μM test compound, lower = better inhibition, negative = better than control caspase inhibitor; for Caspase-3 Activity: relative activity as a fraction, values match Table II percent activity divided by 100; for Ki: calculated from IC50 according to Equation 1, read-out: Ki(app); for IC50: fixed substrate concentration of 55 μM, inhibitors 75 to 0.067 μM in duplicate
T2 construct: purchased Sigma
T2 sequence (P42574 29-175 limits assumed): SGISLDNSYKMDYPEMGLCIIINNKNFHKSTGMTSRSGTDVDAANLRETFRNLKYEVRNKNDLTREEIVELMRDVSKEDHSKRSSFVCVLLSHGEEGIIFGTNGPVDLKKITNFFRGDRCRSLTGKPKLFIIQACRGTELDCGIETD
T2 sequence (P42574 176-277 limits assumed): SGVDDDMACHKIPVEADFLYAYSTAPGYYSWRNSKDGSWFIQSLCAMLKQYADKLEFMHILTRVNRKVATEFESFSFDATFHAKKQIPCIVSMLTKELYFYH
Description: Purified Human recombinant caspase-3, fluorescence labeled substrate (Acetyl-Asp-Glu-Val-Asp-7-amino-4-trifluoromethyl coumarin), and known inhibitor (Z-Asp-Glu-Val-Asp-fluoromethyl ketone) can be purchased from Sigma Chemical Co. (St. Louis, Mo.). The enzyme reactions are carried out at room temperature in 10 mM PIPES pH=7.4, 2 mM EDTA, 0.1% CHAPS, 5 mM DTT reaction buffer. Each well on the 96 well plate contains the above reaction buffer plus 55 μM fluorescence labeled substrate, 0.125 μg caspase-3, and 20-250 μM test compound. Positive and negative controls are present on each assay plate. A standard curve is generated using 7-amino-4-trifluoromethyl coumarin in the concentration range from 0.15 μM to 5.0 μM. The reactions are preferably read every 0.5 hours using a fluorescence microtiter plate reader set for 390 nm excitation and 538 nm emission for the first 4 hours after which the plates are left at room temperature overnight. One reading is taken the next morning as a final measurement.
To determine the caspase inhibitory activity of these compounds, the in vitro high throughput caspase-3 assay presented herein was utilized. Purified human recombinant caspase-3, fluorescence labeled substrate (Acetyl-Asp-Glu-Val-Asp-7-amino-4-trifluoromethyl coumarin), and known inhibitor (Z-Asp-Glu-Val-Asp-fluoromethyl ketone) were purchased from Sigma. The enzyme reactions were carried out at room temperature in 10 mM PIPES pH=7.4, 2 mM EDTA, 0.1% CHAPS, 5 mM DTT reaction buffer. Each well on the 96 well plate contained the above reaction buffer plus 55 μM fluorescence labeled substrate, 0.125 μg caspase-3, and 20-250 μM test compound. Positive and negative controls were present on each assay plate. A standard curve was generated using 7-amino-4-trifluoromethyl coumarin in the concentration range from 0.15 μM to 5.0 μM. The reactions were read every 0.5 hours using a fluorescence microtiter plate reader set for 390 nm excitation and 538 nm emission for the first 4 hours after which the plates were left at room temperature overnight. One reading was taken the next morning as a final measurement.
Ki determinations were carried out using the above assay system. […] Ki(app) was calculated according to Equation 1: [formula]
The concentration of inhibitors ranged from 75 to 0.067 μM with each inhibitor concentration assayed in duplicate. The Km for the substrate was determined from a standard Lineweaver-Burke plot.

TPCK-trypsin = molecular target: T3, TPCK-trypsin (Bos taurus, UniProt P00760); assay: Cross-reactivity protease inhibition assay (QuantiCleave), trypsin; format: biochemical; conditions: ratio Abs450nm with inhibitor / without inhibitor; 100 μM compound
T3 sequence (P00760 24-246): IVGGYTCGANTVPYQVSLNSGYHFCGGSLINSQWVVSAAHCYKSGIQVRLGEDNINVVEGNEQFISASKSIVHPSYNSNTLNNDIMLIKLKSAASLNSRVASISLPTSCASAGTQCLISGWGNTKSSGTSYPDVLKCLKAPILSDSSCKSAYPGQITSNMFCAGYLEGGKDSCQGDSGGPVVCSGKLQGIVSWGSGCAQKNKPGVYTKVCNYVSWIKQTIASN
Description: as §1, §2, §3

[2] = molecular target: T4, Human Rhinovirus serotype 1A 3C Protease (Human rhinovirus 1A, UniProt P23008); assay: 3C Protease Biochemical Assay (FRET); conditions: 30° C., 2-6uM substrate, 416 nM 3CP
T4 construct: used to clone the 3C Protease into the expression vector pET16-b; made in house; host or cells: E. coli BL21-DE3-pLys-S
T4 sequence (P23008 1515-1697): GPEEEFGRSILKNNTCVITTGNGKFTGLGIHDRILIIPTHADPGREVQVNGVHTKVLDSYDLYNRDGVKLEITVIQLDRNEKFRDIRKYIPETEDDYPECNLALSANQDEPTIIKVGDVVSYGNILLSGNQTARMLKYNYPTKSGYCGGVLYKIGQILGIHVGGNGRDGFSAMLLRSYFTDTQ
Description: Human Rhinovirus serotype 1A (ATCC) was used to clone the 3C Protease into the expression vector pET16-b and transformed for production into the E. coli strain BL21-DE3-pLys-S. 3C Protease expression was induced with 1 mM IPTG at 25° C. and purified from the soluble protein extract by chromatography on a SourceQ (Pharmacia) followed by gel filtration. HRV 3CP activity was measured by fluorescence resonance energy transfer using a dimodified decapeptide substrate MOC-[…]DNP-NH2 (7-methoxy coumarin-4-acetic acid fluorochrome and dinitrophenol quencher) with a Km value of 16.8 μM. Inhibition was measured as a change in initial velocity (V0) as a function of inhibitor (I) concentration and substrate (S) concentration. […] Fluorescence was monitored by excitation at 328 nm and emission at 393 nm with 10 nm cutoffs. Data were analyzed with the nonlinear regression analysis program EnzFitter (BioSoft) with the equation:
Ki=(I/((VmaxxS)/V0)/Ks)−I−S
Substrate concentrations used were lower than the Km of the substrate (16.8 uM) so no corrections for an S/Km term were used.

[3] = system: Human Rhinovirus serotype 1A; assay: Cell Culture 3C-Protease Activity Assay (protection of rhinovirus-infected cells); format: cell-based; conditions: for IC50: HeLa-H1 cells infected with Human Rhinovirus serotype 1A, 48 hours, alamarBlue cell survival, dilution series 250-0.98 μM, several values per compound = repeat determinations
Description: (§4) In this assay, 96 well micro titer plates were seeded with 10^4 HeLa-H1 (ATCC) cells per well and incubated in DMEM+10% FBS (Gibco) for 24 hours at 37° C., saturated humidity and 5% CO2. Human Rhinovirus serotype 1A (ATCC) were titered to produce a 30% cell kill and added to some wells of a 96 well plate, other wells were mock infected with media only, followed by incubation at 33° C., saturated humidity and 5% CO2 for 1 hour. Compounds were dissolved in DMSO, diluted in DMEM and added in a 9 step 2-fold dilution series (250, 125, 62.5, 31.25, 15.63, 7.81, 3.91, 1.95, 0.98 μM) 1 hour after virus treatment. Plates were incubated for 48 hours at 33° C., saturated humidity and 5% CO2 in a final volume of 100 μL FBS free DMEM. Cell survival was measured by the addition of 10 μL of alamarBlue™ (BioSource), incubation at 33° C. for 45 minutes and reading in a fluorescence plate reader, excitation: 544 nm, emission: 590 nm. The inhibitory concentration 50% (IC50) was calculated as the concentration of compound that increased the percentage fluorescence in the compound-treated virus-infected cells to 50% of that produced by compound-free, uninfected cells. The toxicity concentration 50% (TC50) was calculated as the concentration of compound that decreased the percentage fluorescence in the compound-treated, uninfected cells to 50% of the compound-free, uninfected cells. The therapeutic index (Ti) was calculated by dividing the […].

HeLa-H1 cells = assay: Toxicity in uninfected cells of the cell culture 3C-protease assay; format: cell-based; set-up: key to TC50: —: the hyphens indicate no value was able to be calculated (i.e. the drug response did not cross the 50% point); conditions: compound-treated uninfected HeLa-H1 cells, 48 hours, alamarBlue, dilution series 250-0.98 μM, several values per compound = repeat determinations; for CC50: read-out: TC50 (the source's name)
Description: as §4

Molecule: NCCc1ccc(S(=O)(=O)F)cc1 [AEBSF, reference compound]
- α-Chymotrypsin Activity (α-chymotrypsin): 0.466

Molecule: CC(=O)N[C@@H](CC(C)C)C(=O)N[C@@H](CC(C)C)C(=O)N[C@H](C=O)CCCNC(=N)N [Leupeptin, leupeptin, reference compound]
- Papain Activity (papain): 0.095

Molecule: CC(C)=CC[C@H](O)C1=CC(=O)c2c(O)ccc(O)c2C1=O [alkannin]
- cysteine protease inhibitory activity (cysteine protease): exhibit cysteine protease inhibitory activity

Molecule: O=c1cc(-c2ccccc2)oc2cc(O)cc(O)c12 [cpi0124]
- α-Chymotrypsin Activity (α-chymotrypsin): 1.029
- Percent Activity [1]: 51.49%
- Caspase-3 Activity [1]: 0.515
- TPCK-Trypsin Activity (TPCK-trypsin): 1.075
- Papain Activity (papain): 0.445

Molecule: O=C1C=CC(=O)c2c(O)ccc(O)c21 [cpi0131]
- α-Chymotrypsin Activity (α-chymotrypsin): 0.915
- Percent Activity [1]: −1.78%
- Caspase-3 Activity [1]: −0.0178
- TPCK-Trypsin Activity (TPCK-trypsin): 0.819
- Ki [2]: 307 µM
- Papain Activity (papain): 0.505

Molecule: CC(C)=CCC1=C(O)C(=O)c2ccccc2C1=O [cpi0133]
- α-Chymotrypsin Activity (α-chymotrypsin): 1.081
- Percent Activity [1]: 48.29%
- Caspase-3 Activity [1]: 0.483
- TPCK-Trypsin Activity (TPCK-trypsin): 1.196
- Papain Activity (papain): 0.897

Molecule: O=C(O)CN(CC(=O)O)Cc1cc2c(c(O)c1O)C(=O)c1ccccc1C2=O [cpi0136.0009]
- Ki [1]: 6.16 µM
- IC50 [1]: 38.8 µM
- Percent Activity [1]: −0.4239%
- IC50 [3]: 0.2 µM
- CC50 (HeLa-H1 cells): > 30 µM

Molecule: O=C(O)CCNc1ccc(O)c2c1C(=O)c1ccccc1C2=O [cpi0136.0012]
- Ki [1]: 1.24 µM
- IC50 [1]: 7.82 µM
- Percent Activity [1]: 7.846%
- IC50 [3]: 30 µM
- CC50 (HeLa-H1 cells): > 30 µM

Molecule: COC(=O)CCNc1ccc(O)c2c1C(=O)c1ccccc1C2=O [cpi0136.NS131731]
- TC50 (HeLa-H1 cells): —, and —

Molecule: CCn1cc(C(=O)O)c(=O)c2ccc(C)nc21 [cpi0176, nalidixic acid, reference compound]
- potency as an antirhinoviral agent relative to potency as an antibiotic agent [3]: 10 fold
- TC50 (HeLa-H1 cells): —, and —
- Ki [2]: 195 µM

Molecule: COc1cccc2occc(=O)c12 [cpi0409]
- TC50 (HeLa-H1 cells): —, and —

Molecule: CC(C)=CC[C@@H](O)C1=CC(=O)c2c(O)ccc(O)c2C1=O [shikonin]
- cysteine protease inhibitory activity (cysteine protease): exhibit cysteine protease inhibitory activity

B1: STI: Soybean Trypsin Inhibitor, known inhibitor control (protein, UniProt P01070 25-205, looked up)
Trypsin inhibitor A: DFVLDNEGNPLENGGTYYILSDITAFGGIRAAPTGNERCPLTVVQSRNELDKGIGTIISSPYRIRFIAEGHPLSLKFDSFAVIMLCVGIPTEWSVVEDLPEGPAVKIGENKDAMDGWFRLERVSDDEFNNYKLVFCPQQAEDDKCGDIGISIDHDDGTRRLVVSKNKPLVVQFQKLDKESL
- TPCK-Trypsin Activity (TPCK-trypsin): 0.017
